pIC50: −log10 of the molar value.
Molecular target: T1, human KSP motor domain (Homo sapiens, UniProt P52732)
T1 construct: were used to amplify the motor domain and the neck linker region; made in house; host or cells: E. coli BL21 (DE3)
T1 sequence (P52732 18-359 limits assumed): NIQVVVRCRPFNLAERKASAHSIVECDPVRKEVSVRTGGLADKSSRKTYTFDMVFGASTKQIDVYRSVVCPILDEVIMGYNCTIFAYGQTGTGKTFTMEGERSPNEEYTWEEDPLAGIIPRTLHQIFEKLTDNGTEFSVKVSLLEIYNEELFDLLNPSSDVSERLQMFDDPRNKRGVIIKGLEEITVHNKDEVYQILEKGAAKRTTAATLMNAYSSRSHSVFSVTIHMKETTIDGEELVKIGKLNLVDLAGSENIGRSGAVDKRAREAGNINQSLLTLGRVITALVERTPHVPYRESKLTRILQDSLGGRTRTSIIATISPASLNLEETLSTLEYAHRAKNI
Assay: Kinesin ATPase In Vitro Assay
Assay type: biochemical
Settings: human poly-histidine tagged KSP motor domain (KSP(367H)), microtubules, 1 mM ATP, 23° C.
Source text: I. Kinesin ATPase In Vitro Assay
Cloning and Expression of Human Poly-Histidine Tagged KSP Motor Domain (KSP(367H))
Plasmids for the expression of the human KSP motor domain construct were cloned by PCR using a pBluescript full length human KSP construct (Blangy et al., Cell, vol. 83, pp 1159-1169, 1995) as a template. The N-terminal primer 5′-[…] (SEQ. ID. NO.: 1) and the C-terminal primer 5′-[…] […] (SEQ. ID. NO.: 2) were used to amplify the motor domain and the neck linker region. The PCR products were digested with AseI and XhoI, ligated into the NdeI/XhoI digestion product of pRSETa (Invitrogen) and transformed into E. coli BL21 (DE3).
Cells were grown at 37° C. to an OD600 of 0.5. […]
The kinesin motor domain is incubated with microtubules, 1 mM ATP (1:1 MgCl2: Na-ATP), and compound at 23° C. in buffer containing 80 mM K-HEPES (pH 7.0), 1 mM EGTA, 1 mM DTT, 1 mM MgCl2, and 50 mM KCl. […] Free phosphate from the ATP hydrolysis reaction is measured via a quinaldine red/ammonium molybdate assay by adding 150 μl of quench C buffer containing a 2:1 ratio of quench A:quench B. Quench A contains 0.1 mg/ml quinaldine red and 0.14% polyvinyl alcohol; quench B contains 12.3 mM ammonium molybdate tetrahydrate in 1.15 M sulfuric acid. The reaction is incubated for 10 minutes at 23° C., and the absorbance of the phospho-molybdate complex is measured at 540 nm.

Cc1ccc(-n2c(-c3ccccc3Br)nc3sccc3c2=O)cc1 [1-4, 2-(2-bromophenyl)-3-(4-methylphenyl)thieno[2,3-d]pyrimidin-4(3H)-one]
pIC50: ≥ 4.30
